The values that follow come from patent US20200308170A1, “KRAS G12C INHIBITORS” (Mirati Therapeutics, Inc., priority 2017, published 2020).

Chain of KRas G12C (P01116 1-188 isoform P01116-2 G12C): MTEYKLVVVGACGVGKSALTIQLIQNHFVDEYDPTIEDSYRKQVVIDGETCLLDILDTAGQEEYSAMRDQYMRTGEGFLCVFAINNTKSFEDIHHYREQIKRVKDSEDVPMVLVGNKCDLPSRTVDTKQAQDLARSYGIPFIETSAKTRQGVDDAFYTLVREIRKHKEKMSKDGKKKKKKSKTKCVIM

The target of the experiment is KRas G12C (Homo sapiens, UniProt P01116, G12C). Nature of the experiment: Inhibition of KRas G12C in NCI-H358 cells measured by phosphorylated ERK (Phospho-ERK). The class given is cell-based. To be noted: 3 hours, 4 parameter fit, read-out: IC50 (pERK(Thr202/Tyr204) signal normalized with GAPDH). How it is done:
Cells were plated in poly-D-Lysine coated 96-well plates at a concentration of 50,000 cells/well and allowed to attach for 8-12 hours. Diluted compounds were then added at a final concentration of 0.5% DMSO. After 3 hours, the medium was removed, 150 μL of 4% formaldehyde was added and the plates were incubated for 20 minutes. The plates were washed with PBS, and permeabilized using 150 μL of ice cold 100% methanol for 10 minutes. Non-specific antibody binding to the plates was blocked using 100 μL Licor Blocking Buffer (Li-Cor Biotechnology, Lincoln Nebr.) for 1 hour at room temperature. Positive control samples and samples lacking cells were parallel processed with test samples as standards.
The amount Phospho-ERK was determined using an antibody specific for the phosphorylated form of ERK and compared to the amount of GAPDH. […] The plates were incubated for 2 hours at room temperature. The plates were washed with PBS+0.05% Tween 20.
Secondary antibodies used to visualize primary antibodies were added as follows: Anti-rabbit-680 diluted 1:1000 and Anti-mouse-800 diluted 1:1000 in Licor Block+0.05% Tween 20 and incubated for 1 hour at room temperature. The plates were washed with PBS+0.05% Tween 20. A 100 μL aliquot of PBS was added to each well and the plates were read on a LICOR AERIUS plate reader.
The pERK(Thr202/Tyr204) signal was normalized with the GAPDH signal and percent of DMSO control values were calculated. IC50 values were generated using a 4 parameter fit of the dose response curve.
Regarding `C=C(F)C(=O)N1CCN(c2nc(OCC34CCCN3CCC4)nc3c2CCN(c2cccc4ccccc24)C3)C[C@@H]1CC#N` [Example 146], the IC50 was in the range of 0.1 to 1000 nM.
Take `C=C(F)C(=O)N1CCN(c2nc(OC[C@@H]3CCCN3C)nc3c2CCN(c2cccc4ccc(Cl)c(Cl)c24)C3)C[C@@H]1CC#N` [Example 137]: the IC50 was 1000 to 10000 nM.
Take `C=C(F)C(=O)N1CCN(c2nc(OCC3CCN3CC)nc3c2CCN(c2cccc4ccc(F)c(Cl)c24)C3)C[C@@H]1CC#N` (some centres unmarked) [Example 179]: the IC50 is 0.1 to 1000 nM.
With `C=C(F)C(=O)N1CCN(c2nc(OCC34CCC(CC3)CN4C)nc3c2CCN(c2cccc4ccc(F)c(Cl)c24)C3)C[C@@H]1CC#N` [Example 166], the IC50 was in the range of 0.1 to 1000 nM.
For the compound `C=C(F)C(=O)N1CCN(c2nc(OCC34CCCN3CCC4)nc3c2CCN(c2cccc(F)c2C(F)(F)F)C3)C[C@@H]1CC#N` [Example 140], the IC50 lay in the range of 0.1 to 1000 nM.
Take `C=C(F)C(=O)N1CCN(c2nc(OC[C@@H]3C[C@@H](F)CN3)nc3c2CCN(c2cccc4ccc(F)c(Cl)c24)C3)C[C@@H]1CC#N` [Example 209, 2-((S)-4-(7-(8-chloro-7-fluoronaphthalen-1-yl)-2-(((2S,4R)-4-fluoropyrrolidin-2-yl)methoxy)-5,6,7,8-tetrahydropyrido[3,4-d]pyrimidin-4-yl)-1-(2-fluoroacryloyl)piperazin-2-yl)acetonitrile]: the IC50 is 0.1 to 1000 nM.
For `C=C(F)C(=O)N1CCN(c2nc(OC3CN4CCC3CC4)nc3c2CCN(c2cccc4ccc(F)c(Cl)c24)C3)C[C@@H]1CC#N` (some centres unmarked) [Example 154], the IC50 fell in the range of 1000 to 10000 nM.
Next, `C=C(F)C(=O)N1CCN(c2nc(OC3CC4(C3)CN(C)C4)nc3c2CCN(c2cccc4ccc(F)c(Cl)c24)C3)C[C@@H]1CC#N` [Example 149]: 1000 to 10000 nM; `N#CC[C@H]1CN(c2nc(OCC34CCCN3CCC4)nc3c2CCN(c2cccc4ccc(F)c(Cl)c24)C3)CCN1C(=O)/C(F)=C/CF` [Example 207, (S, Z)-2-(4-(7-(8-chloro-7-fluoronaphthalen-1-yl)-2-((tetrahydro-1H-pyrrolizin-7a(5H)-yl)methoxy)-5,6,7,8-tetrahydropyrido[3,4-d]pyrimidin-4-yl)-1-(2,4-difluorobut-2-enoyl)piperazin-2-yl)acetonitrile]: 0.1 to 1000 nM; `C=C(F)C(=O)N1CCN(c2nc(OCCn3ccnc3)nc3c2CCN(c2cccc4ccc(F)c(Cl)c24)C3)C[C@@H]1CC#N` [Example 163]: 1000 to 10000 nM.
Turning to `C=C(F)C(=O)N1CCN(c2nc(OCC34CCCCN3CCC4)nc3c2CCN(c2cccc4ccc(F)c(Cl)c24)C3)C[C@@H]1CC#N` (some centres unmarked) [Example 151], the IC50 was in the range of 0.1 to 1000 nM.
The result for `C=C(F)C(=O)N1CCN(c2nc(OCC34COCN3COC4)nc3c2CCN(c2cccc4ccc(F)c(Cl)c24)C3)C[C@@H]1CC#N` [Example 155] reads 0.1 to 1000 nM; that for `C=C(F)C(=O)N1CCN(c2nc(OC[C@@H]3CC(F)(F)CN3)nc3c2CCN(c2cccc4ccc(F)c(Cl)c24)C3)C[C@@H]1CC#N` [Example 208, 2-((S)-4-(7-(8-chloro-7-fluoronaphthalen-1-yl)-2-(((S)-4,4-difluoropyrrolidin-2-yl)methoxy)-5,6,7,8-tetrahydropyrido[3,4-d]pyrimidin-4-yl)-1-(2-fluoroacryloyl)piperazin-2-yl)acetonitrile], 0.1 to 1000 nM; that for `C=C(F)C(=O)N1CCN(c2nc(OC[C@@H]3CC4CCN3C4)nc3c2CCN(c2cccc4ccc(F)c(Cl)c24)C3)C[C@@H]1CC#N` (some centres unmarked) [Example 180], 0.1 to 1000 nM.
`C=C(F)C(=O)N1CCN(c2nc(OC[C@@H]3C[C@@H](OC)CN3C(C)C)nc3c2CCN(c2cccc4ccc(F)c(Cl)c24)C3)C[C@@H]1CC#N` [Example 181]: the IC50 lay within 0.1 to 1000 nM.
In the case of `C=C(F)C(=O)N1CCN(c2nc(OCC3CCN3C(C)(C)C)nc3c2CCN(c2cccc4cccc(C)c24)C3)C[C@@H]1CC#N` (stereo partly drawn) [Example 74, 2-((2S)-4-(2-((1-(tert-butyl)azetidin-2-yl)methoxy)-7-(8-methylnaphthalen-1-yl)-5,6,7,8-tetrahydropyrido[3,4-d]pyrimidin-4-yl)-1-(2-fluoroacryloyl)piperazin-2-yl)acetonitrile], the IC50 was 0.1 to 1000 nM.
For `C=C(F)C(=O)N1CCN(c2nc(OC[C@@H]3[C@@H]4CC[C@@H](C4)N3C)nc3c2CCN(c2cccc4ccc(F)c(Cl)c24)C3)C[C@@H]1CC#N` [Example 190], the IC50 fell in the range of 0.1 to 1000 nM.
The result for `C=C(F)C(=O)N1CCN(c2nc(OC3CCN(C4CCOCC4)CC3)nc3c2CCN(c2cccc4cccc(Cl)c24)C3)C[C@@H]1CC#N` [Example 130, (S)-2-(4-(7-(8-chloronaphthalen-1-yl)-2-((1-(tetrahydro-2H-pyran-4-yl)piperidin-4-yl)oxy)-5,6,7,8-tetrahydropyrido[3,4-d]pyrimidin-4-yl)-1-(2-fluoroacryloyl)piperazin-2-yl)acetonitrile] reads 1000 to 10000 nM; that for `C=C(F)C(=O)N1CCN(c2nc(OCC34CCC(CC3)N4C)nc3c2CCN(c2cccc4ccc(F)c(Cl)c24)C3)C[C@@H]1CC#N` [Example 171], 0.1 to 1000 nM.
Turning to `C=C(F)C(=O)N1CCN(c2nc(OCC34CCCN3CCC4)nc3c2CCN(c2cccc(C)c2C)C3)C[C@@H]1CC#N` [Example 142], the IC50 was 0.1 to 1000 nM.
With `C=C(F)C(=O)N1CCN(c2nc(OCC34CCCN3CC3(CC3)C4)nc3c2CCN(c2cccc4ccc(F)c(Cl)c24)C3)C[C@@H]1CC#N` (some centres unmarked) [Example 184], the IC50 was in the range of 0.1 to 1000 nM.
On to `COC/C=C(\F)C(=O)N1CCN(c2nc(OCC34CCCN3CCC4)nc3c2CCN(c2cccc4ccc(F)c(Cl)c24)C3)C[C@@H]1CC#N` [Example 206, (S, Z)-2-(4-(7-(8-chloro-7-fluoronaphthalen-1-yl)-2-((tetrahydro-1H-pyrrolizin-7a(5H)-yl)methoxy)-5,6,7,8-tetrahydropyrido[3,4-d]pyrimidin-4-yl)-1-(2-fluoro-4-methoxybut-2-enoyl)piperazin-2-yl)acetonitrile], for which the IC50 is 0.1 to 1000 nM.
Next, `C=C(F)C(=O)N1CCN(c2nc(OCC3CC4(CC4)CN3C)nc3c2CCN(c2cccc4ccc(F)c(Cl)c24)C3)C[C@@H]1CC#N` (some centres unmarked) [Example 160]: 0.1 to 1000 nM; `C=C(F)C(=O)N1CCN(c2nc(OCC34CCCN3CC(F)(F)C4)nc3c2CCN(c2cccc4ccc(F)c(Cl)c24)C3)C[C@@H]1CC#N` (some centres unmarked) [Example 174]: 0.1 to 1000 nM; `C=C(F)C(=O)N1CCN(c2nc(OC[C@@H]3C[C@@H](OC)CN3C)nc3c2CCN(c2cccc4ccc(F)c(Cl)c24)C3)C[C@@H]1CC#N` [Example 170]: 0.1 to 1000 nM.
Consider `C=C(F)C(=O)N1CCN(c2nc(OCCN3C[C@@H]4CC3CO4)nc3c2CCN(c2cccc4ccc(F)c(Cl)c24)C3)C[C@@H]1CC#N` [Example 193], for which the IC50 was in the range of 0.1 to 1000 nM.
For the compound `C=C(F)C(=O)N1CCN(c2nc(OC[C@@H]3CCCN3C3CCC3)nc3c2CCN(c2cccc4ccc(F)c(Cl)c24)C3)C[C@@H]1CC#N` [Example 196], the IC50 is 0.1 to 1000 nM.
The result for `C=C(F)C(=O)N1CCN(c2nc(OC[C@@H]3C[C@@H](F)CN3C)nc3c2CCN(c2cccc4ccc(F)c(Cl)c24)C3)C[C@@H]1CC#N` [Example 172] reads 0.1 to 1000 nM.
Consider `C=C(F)C(=O)N1CCN(c2nc(OCC34CC(N(C)C)(C3)C4)nc3c2CCN(c2cccc4ccc(F)c(Cl)c24)C3)C[C@@H]1CC#N` [Example 188], for which the IC50 is 0.1 to 1000 nM.
The result for `C=C(F)C(=O)N1CCN(c2nc(OCC3CN(C)C3)nc3c2CCN(c2cccc4ccc(F)c(Cl)c24)C3)C[C@@H]1CC#N` [Example 173] reads 0.1 to 1000 nM.
The result for `C=C(F)C(=O)N1CCN(c2nc(OCC(C)N3C[C@@H](C)O[C@@H](C)C3)nc3c2CCN(c2cccc4ccc(F)c(Cl)c24)C3)C[C@@H]1CC#N` (some centres unmarked) [Example 164] reads 1000 to 10000 nM.
Regarding `C=C(F)C(=O)N1CCN(c2nc(OCCNCC(F)(F)F)nc3c2CCN(c2cccc4ccc(F)c(Cl)c24)C3)C[C@@H]1CC#N` [Example 200], the IC50 lay in the range of 0.1 to 1000 nM.
The result for `C=C(F)C(=O)N1CCN(c2nc(OC[C@H]3CN(C)CCO3)nc3c2CCN(c2cccc4ccc(F)c(Cl)c24)C3)C[C@@H]1CC#N` [Example 195] reads 0.1 to 1000 nM; that for `C=C(F)C(=O)N1CCN(c2nc(OC[C@@H]3CCCN3C)nc3c2CCN(c2cccc4ccc(F)c(Cl)c24)C3)C[C@@H]1CC#N` [Example 133], 0.1 to 1000 nM.
In the case of `C=C(F)C(=O)N1CCN(c2nc(OCC3COC3)nc3c2CCN(c2cccc4ccc(F)c(Cl)c24)C3)C[C@@H]1CC#N` [Example 197], the IC50 is 0.1 to 1000 nM.
The result for `C=C(F)C(=O)N1CCN(c2nc(OC[C@@H]3C[C@@H](F)CN3C(C)C)nc3c2CCN(c2cccc4ccc(F)c(Cl)c24)C3)C[C@@H]1CC#N` [Example 183] reads 0.1 to 1000 nM; that for `C=C(F)C(=O)N1CCN(c2nc(OCC(C)N3CCCCC3)nc3c2CCN(c2cccc4ccc(F)c(Cl)c24)C3)C[C@@H]1CC#N` (some centres unmarked) [Example 158], 0.1 to 1000 nM.
On to `C=C(F)C(=O)N1CCN(c2nc(OC[C@@H]3CCCN3CC)nc3c2CCN(c2cccc4ccc(F)c(Cl)c24)C3)C[C@@H]1CC#N` [Example 185], for which the IC50 is 0.1 to 1000 nM.
